Laboratory results reported in US20220015402A1, “Mint Flavor Compositions” (The Procter & Gamble Company, priority 2020, published 2022).

Experiments:
[1] = Comparison of cooling attributes of (−)-menthol and racemic menthol in a toothpaste (CREST Cavity formulation); type: in vivo
Source text: The following data helps support the use of racemic menthol to reduce costs of mint flavor compositions herein described. From internal unpublished research, Table B compares replacing (−)-menthol with a racemic menthol in a 1:1 in a toothpaste formulation. Such a direct replacement is not preferred given the reduced cooling profile and olfactory differences; however, a portion of L-menthol is preferably replaced by racemic-menthol to gain cost efficiency while minimizing impact to the overall mint flavor profiles.
Table B is a comparison of attributes between (—)-menthol and racemic menthol in a toothpaste context (using CREST Cavity formulation).

[2] = Expert sensory testing of racemic menthol vs (−)-menthol in toothpaste (CREST Cavity) with standard spearmint flavor; type: in vivo
Description: In separate, unpublished internal experiments, perceptual experiences of racemic menthol are quantified via expert sensory testing. The use of a standard spearmint flavor (minimizing extra menthol contribution) compared racemic menthol to (−)-menthol in a toothpaste formulation (CREST Cavity). There are several sensory observations taken from these experiments. […] These aromatic notes appear during brushing and disappear after 5-10 minutes post expectoration and are more pronounced as concentrations increase.

SMILES: CC1CCC(C(C)C)C(O)C1 (racemic) [Racemic Menthol, racemic menthol]
- Potency compared to L-Menthol [1]: ~0.65-0.7x
- Time Point at Maximum Cooling [1]: ~1 min
- Maximum Cooling (0-60 scale) ([1]; 60 = greatest amount of cooling, 0 = least): 35
- Maximum Longevity ([1]; cooling): Up to 20 minutes
- less potent than (−)-menthol for cooling [2]: 25-30%
